{"source": "ChEMBL document CHEMBL1201862", "about": "“PubChem BioAssay data set” (2004)", "key": {"[1]": {"experiment": "general cell-killing toxicity readout – plate reader, dry powder samples, cytotoxicity control for PAX8 inhibitor project, dose response (AID 743021)", "assay_type": "functional, cell-based"}, "BJ [2]": {"test_system": "BJ", "experiment": "BJ-TERT-LT-ST fibroblast viability loss – cell-based, RAS-independent, luminescence, dose response (AID 1935);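 further: BJ fibroblasts immortalized with TERT plus LT and ST oncogenes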", "assay_type": "functional", "conditions": "Homo sapiens"}, "HEK293": {"test_system": "HEK293", "experiment": "EBV LMP1 TES2 canonical NF-kB signalling blockers – cell-based, HEK293, luciferase, cherry-pick, dose response (AID 588343)", "assay_type": "functional", "conditions": "Homo sapiens"}, "[3]": {"molecular_target": "T1, Heat shock factor protein 1 (Mus musculus, UniProt P38532)", "T1 sequence (P38532 whole entry)": "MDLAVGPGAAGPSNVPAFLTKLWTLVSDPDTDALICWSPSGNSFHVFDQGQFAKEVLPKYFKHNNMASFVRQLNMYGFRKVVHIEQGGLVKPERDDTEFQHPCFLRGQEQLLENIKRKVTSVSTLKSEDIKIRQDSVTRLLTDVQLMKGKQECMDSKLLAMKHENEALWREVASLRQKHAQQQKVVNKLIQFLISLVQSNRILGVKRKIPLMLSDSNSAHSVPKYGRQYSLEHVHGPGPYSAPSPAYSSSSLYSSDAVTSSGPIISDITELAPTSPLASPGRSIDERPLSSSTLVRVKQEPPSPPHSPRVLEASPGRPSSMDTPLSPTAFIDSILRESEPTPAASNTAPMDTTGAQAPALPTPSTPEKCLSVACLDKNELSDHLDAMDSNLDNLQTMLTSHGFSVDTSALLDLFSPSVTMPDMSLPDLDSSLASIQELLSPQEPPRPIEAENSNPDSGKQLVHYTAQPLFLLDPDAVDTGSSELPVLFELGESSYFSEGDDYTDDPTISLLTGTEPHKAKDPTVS", "experiment": "decrease of HSF1-responsive luciferase luminescence – cell-based, NIH3T3, dose retest, confirmation (AID 2382);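 further: NIH3T3 fibroblasts with HSF1-driven luciferase reporter stressed by proteasome inhibitor MG132; luminescence from HSF1-driven luciferase expression after 8 hours of MG132 stress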", "assay_type": "functional"}, "BJ [4]": {"test_system": "BJ", "experiment": "BJ-TERT fibroblast viability loss – cell-based, RAS-independent, luminescence, dose response (AID 1933)", "assay_type": "functional", "conditions": "Homo sapiens"}, "Paired box protein Pax-8": {"molecular_target": "Paired box protein Pax-8 (Homo sapiens, UniProt Q06710)", "sequence (Q06710 whole entry)": "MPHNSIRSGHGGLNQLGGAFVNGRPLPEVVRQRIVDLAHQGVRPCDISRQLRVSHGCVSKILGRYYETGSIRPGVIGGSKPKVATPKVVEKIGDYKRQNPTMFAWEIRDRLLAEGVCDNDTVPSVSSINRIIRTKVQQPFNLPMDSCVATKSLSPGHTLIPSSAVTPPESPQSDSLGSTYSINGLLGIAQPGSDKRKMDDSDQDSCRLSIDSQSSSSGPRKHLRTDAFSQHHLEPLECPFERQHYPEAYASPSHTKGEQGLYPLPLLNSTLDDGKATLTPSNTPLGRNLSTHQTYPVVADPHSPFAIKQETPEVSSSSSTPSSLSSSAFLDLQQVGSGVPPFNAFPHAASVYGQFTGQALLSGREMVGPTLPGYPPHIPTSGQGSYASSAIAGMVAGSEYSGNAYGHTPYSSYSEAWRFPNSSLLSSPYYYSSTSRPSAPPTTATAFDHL", "experiment": "PAX8 transcriptional activity inhibition in RMG-I – RMG-I cells, luciferase, cherry-pick, dose response (AID 687027);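 further: luciferase reporter driven by Pax8 target thyroperoxidase promoter measured by SteadyGlo luminescence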", "assay_type": "functional, cell-based"}, "[5]": {"experiment": "blockers of HIV-1 ZM109 envelope-driven cell-cell fusion – HeLa effector, CEM target cells, luciferase, cherry-pick, dose response (AID 652058)", "assay_type": "functional, cell-based"}, "BJ [6]": {"test_system": "BJ", "experiment": "growth inhibition of engineered Ras-driven BJ cells – cell-based, alamar blue fluorescence, cherrypicked samples, dose response (AID 2631)", "assay_type": "functional", "conditions": "Homo sapiens"}, "[7]": {"experiment": "viability loss in CEM21 cells – cell-based, CellTiter-Glo luminescence, cherry-picked, cytotoxicity control for viral fusion inhibitor project, dose response (AID 652042);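 further: potency for signal decrease meaning cytotoxicity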", "assay_type": "functional"}, "[8]": {"experiment": "Luminescence Cell-Based Dose Response HTS to Identify Inhibitors of 5'UTR Stem-Loop Driven Prion Protein mRNA Translation in H4 Neuroglioblastoma Cells. [Related pubchem assays: 1827 (Project Summary), 1813 (Primary HTS)]", "assay_type": "functional"}, "[9]": {"experiment": "viability of PTEN-deleted HCT116 cells – cell-based, HCT116 PTEN knockout, dose response (AID 1047);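 further: HCT116 colon tumor cells with PTEN knocked out; cells exposed to compound for 60 hours before readout; potency for loss of cell viability measured by luminescence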", "assay_type": "functional"}, "[10]": {"experiment": "viability loss of HPDE-C7K cells – cell-based, fluorescence, HTS, primary screen (AID 431)", "assay_type": "functional", "conditions": "Homo sapiens"}, "[11]": {"experiment": "HIV-1 AD8 envelope cell-cell fusion blockers – cherry-pick, dose response (AID 652062);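 further: potency is for inhibitors of fusion seen as a drop in luminescence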", "assay_type": "functional, cell-based"}, "[12]": {"molecular_target": "Voltage-dependent T-type calcium channel subunit alpha-1H (Homo sapiens, UniProt O95180)", "assay_type": "functional"}, "[13]": {"experiment": "DRD fibroblast viability loss – cell-based, non-viral oncogenic, luminescence, dose response (AID 1934)", "assay_type": "functional", "conditions": "Homo sapiens"}, "[14]": {"experiment": "alpha-synuclein stem-loop luciferase translation blockers – H4 neuroglioma cells, luminescence, confirmation (AID 1988)", "assay_type": "functional, cell-based"}, "BJ [15]": {"test_system": "BJ", "experiment": "cells", "assay_type": "functional, cell-based", "conditions": "Homo sapiens"}, "[16]": {"experiment": "luciferase reporter signal suppression in cells – H4 neuroglioma cells, luminescence, dose response (AID 1990)", "assay_type": "functional, cell-based"}, "[17]": {"experiment": "blockers of HIV-1 envelope-mediated cell-cell fusion – cherry-pick, dose response (AID 652057)", "assay_type": "functional, cell-based"}, "[18]": {"experiment": "viability of HCT116 lacking mutant beta-catenin – cell-based, human colon tumor, dose response (AID 1045);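 further: HCT116 colon tumor cells with beta catenin knocked out; cells exposed to compound for 60 hours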", "assay_type": "functional"}, "[19]": {"experiment": "HPDE-C7 pancreatic duct cell viability loss – fluorescence, HTS (AID 430)", "assay_type": "functional, cell-based", "conditions": "Homo sapiens"}, "[20]": {"experiment": "off-target signal loss in HeLa-CEM21 co-culture – HeLa F-luc CTL cells, cherry-picked, counter-screen for HIV-1 Env fusion inhibitor project, dose response (AID 652040);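 further: potency for signal decrease marking cytotoxic or nonspecific inhibition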", "assay_type": "functional, cell-based"}, "[21]": {"molecular_target": "Metabotropic glutamate receptor 3 (Rattus norvegicus, UniProt P31422)", "sequence (P31422 whole entry)": "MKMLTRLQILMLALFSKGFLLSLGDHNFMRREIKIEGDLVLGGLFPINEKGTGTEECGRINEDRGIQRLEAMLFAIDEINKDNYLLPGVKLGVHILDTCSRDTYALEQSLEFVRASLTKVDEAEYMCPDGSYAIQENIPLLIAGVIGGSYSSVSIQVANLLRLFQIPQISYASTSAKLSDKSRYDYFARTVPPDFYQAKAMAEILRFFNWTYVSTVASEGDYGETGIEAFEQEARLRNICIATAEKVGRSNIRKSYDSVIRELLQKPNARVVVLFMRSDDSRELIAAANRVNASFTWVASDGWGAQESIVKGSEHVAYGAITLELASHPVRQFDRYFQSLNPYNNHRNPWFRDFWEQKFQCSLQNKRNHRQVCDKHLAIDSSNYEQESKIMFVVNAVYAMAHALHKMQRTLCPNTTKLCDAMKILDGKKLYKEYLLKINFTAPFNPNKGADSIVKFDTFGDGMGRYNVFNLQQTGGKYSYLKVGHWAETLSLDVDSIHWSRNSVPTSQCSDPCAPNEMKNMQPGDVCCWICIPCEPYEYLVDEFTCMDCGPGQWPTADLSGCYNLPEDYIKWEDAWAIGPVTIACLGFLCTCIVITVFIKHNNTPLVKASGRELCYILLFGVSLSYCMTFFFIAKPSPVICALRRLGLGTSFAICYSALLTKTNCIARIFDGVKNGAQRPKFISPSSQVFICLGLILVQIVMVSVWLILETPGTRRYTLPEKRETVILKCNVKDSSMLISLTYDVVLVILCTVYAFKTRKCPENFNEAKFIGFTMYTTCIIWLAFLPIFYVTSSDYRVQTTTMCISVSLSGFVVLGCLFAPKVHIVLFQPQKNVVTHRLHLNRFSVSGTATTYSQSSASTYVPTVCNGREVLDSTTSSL", "experiment": "inhibition of rat mGlu3 glutamate signaling – HEK/GIRK cells, thallium flux, dose response (AID 651839)", "assay_type": "functional"}, "[22]": {"molecular_target": "1-phosphatidylinositol 4,5-bisphosphate phosphodiesterase gamma-1 (Homo sapiens, UniProt P19174)", "sequence (P19174 whole entry)": "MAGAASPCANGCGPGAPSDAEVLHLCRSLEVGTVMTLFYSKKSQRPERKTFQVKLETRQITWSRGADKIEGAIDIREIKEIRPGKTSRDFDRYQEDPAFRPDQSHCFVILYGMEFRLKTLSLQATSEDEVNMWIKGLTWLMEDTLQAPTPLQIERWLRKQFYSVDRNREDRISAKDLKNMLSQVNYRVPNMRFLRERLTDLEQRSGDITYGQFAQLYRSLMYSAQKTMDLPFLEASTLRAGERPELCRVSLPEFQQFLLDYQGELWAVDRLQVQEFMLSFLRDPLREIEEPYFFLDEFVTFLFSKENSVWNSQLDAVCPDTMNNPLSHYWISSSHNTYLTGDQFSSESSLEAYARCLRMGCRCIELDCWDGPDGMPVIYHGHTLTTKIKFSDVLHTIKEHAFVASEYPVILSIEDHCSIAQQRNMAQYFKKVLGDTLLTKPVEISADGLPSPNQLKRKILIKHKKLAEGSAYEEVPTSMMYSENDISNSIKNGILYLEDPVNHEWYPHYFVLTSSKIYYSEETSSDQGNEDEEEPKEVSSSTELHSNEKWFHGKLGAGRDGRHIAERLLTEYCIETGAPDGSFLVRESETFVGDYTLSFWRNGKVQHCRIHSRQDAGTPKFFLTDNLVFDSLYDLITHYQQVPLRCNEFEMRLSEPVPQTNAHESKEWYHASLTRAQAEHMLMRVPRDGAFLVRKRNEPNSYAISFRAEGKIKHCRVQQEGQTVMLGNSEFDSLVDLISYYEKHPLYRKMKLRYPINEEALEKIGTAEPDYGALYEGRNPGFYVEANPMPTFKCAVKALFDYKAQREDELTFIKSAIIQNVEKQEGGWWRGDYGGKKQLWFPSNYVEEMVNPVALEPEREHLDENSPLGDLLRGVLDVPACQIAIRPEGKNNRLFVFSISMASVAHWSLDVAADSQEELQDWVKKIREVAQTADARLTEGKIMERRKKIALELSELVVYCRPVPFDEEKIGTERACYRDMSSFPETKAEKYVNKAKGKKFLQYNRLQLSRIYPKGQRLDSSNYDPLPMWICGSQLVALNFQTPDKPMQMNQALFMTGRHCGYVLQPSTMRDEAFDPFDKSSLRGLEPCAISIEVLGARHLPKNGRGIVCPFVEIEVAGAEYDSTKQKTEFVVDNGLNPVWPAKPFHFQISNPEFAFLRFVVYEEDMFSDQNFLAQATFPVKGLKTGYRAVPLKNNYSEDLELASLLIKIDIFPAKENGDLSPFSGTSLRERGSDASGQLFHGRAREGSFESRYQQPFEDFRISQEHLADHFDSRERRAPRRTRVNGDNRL", "experiment": "Counterscreen for inhibitors of phospholipase C isozymes (PLC-B3): Fluorescence-based biochemical high throughput dose response assay to identify inhibitors of phospholipase C isozymes (PLC-gamma1)."}, "[23]": {"molecular_target": "1-phosphatidylinositol 4,5-bisphosphate phosphodiesterase beta-3 (Homo sapiens, UniProt Q01970)", "sequence (Q01970 whole entry)": "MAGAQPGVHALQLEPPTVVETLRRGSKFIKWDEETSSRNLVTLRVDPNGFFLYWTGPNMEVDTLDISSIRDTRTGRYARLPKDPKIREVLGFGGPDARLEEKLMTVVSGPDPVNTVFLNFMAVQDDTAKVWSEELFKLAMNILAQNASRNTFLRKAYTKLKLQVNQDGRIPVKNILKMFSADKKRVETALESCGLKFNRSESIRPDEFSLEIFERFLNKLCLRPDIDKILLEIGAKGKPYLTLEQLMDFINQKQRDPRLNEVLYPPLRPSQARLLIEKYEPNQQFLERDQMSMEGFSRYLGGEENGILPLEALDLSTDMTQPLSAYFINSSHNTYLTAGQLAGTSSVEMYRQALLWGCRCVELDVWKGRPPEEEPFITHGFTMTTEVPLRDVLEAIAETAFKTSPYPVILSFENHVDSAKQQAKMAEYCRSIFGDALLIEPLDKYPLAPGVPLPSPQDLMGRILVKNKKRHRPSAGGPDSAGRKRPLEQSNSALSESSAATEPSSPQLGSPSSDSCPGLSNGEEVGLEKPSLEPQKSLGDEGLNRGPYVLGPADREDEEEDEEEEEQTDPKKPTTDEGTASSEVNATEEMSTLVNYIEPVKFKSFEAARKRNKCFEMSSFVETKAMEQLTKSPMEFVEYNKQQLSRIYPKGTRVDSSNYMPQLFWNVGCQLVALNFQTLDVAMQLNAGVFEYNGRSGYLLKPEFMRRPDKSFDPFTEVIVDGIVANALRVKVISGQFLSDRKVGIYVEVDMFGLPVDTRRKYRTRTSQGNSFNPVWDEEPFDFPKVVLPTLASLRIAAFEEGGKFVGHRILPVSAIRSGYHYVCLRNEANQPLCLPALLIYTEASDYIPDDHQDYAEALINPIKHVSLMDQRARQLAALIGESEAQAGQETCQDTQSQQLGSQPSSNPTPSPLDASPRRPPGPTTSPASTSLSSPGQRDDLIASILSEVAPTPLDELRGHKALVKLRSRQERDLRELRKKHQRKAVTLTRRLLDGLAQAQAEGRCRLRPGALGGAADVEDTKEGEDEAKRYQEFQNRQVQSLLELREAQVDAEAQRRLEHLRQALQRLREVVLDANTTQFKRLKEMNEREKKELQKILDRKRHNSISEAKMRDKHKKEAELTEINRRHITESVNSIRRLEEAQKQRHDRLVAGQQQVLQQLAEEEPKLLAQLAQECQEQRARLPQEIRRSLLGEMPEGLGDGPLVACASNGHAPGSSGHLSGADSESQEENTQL", "experiment": "Fluorescence-based biochemical high throughput dose response assay to identify inhibitors of phospholipase C isozymes (PLC-B3)."}, "[24]": {"experiment": "A2780 cell killing – plate reader, dry powder samples, cytotoxicity control, dose response (AID 743046)", "assay_type": "functional, cell-based"}, "[25]": {"experiment": "OVCAR-3 cell viability loss – plate reader, dry powder samples, PAX8 inhibitor project, dose response (AID 743044)", "assay_type": "functional, cell-based"}, "[26]": {"experiment": "toxicity toward HepG2 liver cells – cell-based, plate reader, cherry-pick, antagonist series, cytotoxicity control, dose response (AID 743416)", "assay_type": "functional"}, "[27]": {"experiment": "viability loss in HEK293 cells – cell-based, plate reader, cherry-picked samples, cytotoxicity control, dose response (AID 743446)", "assay_type": "functional"}, "[28]": {"experiment": "A549 cell cytotoxicity, dose response, cytotoxicity control, plate reader, cherry-pick, antagonist series (AID 743412)", "assay_type": "functional, cell-based"}, "[29]": {"experiment": "blockade of melanocortin 4 receptor signaling – cell-based, plate reader, cherry pick, counter-screen for LGR2 antagonist project, dose response (AID 743444);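 further: transfected HEK 293 cells stimulated with alpha-MSH peptide; potency of inhibitors of the alpha-MSH evoked signal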", "assay_type": "functional"}, "[30]": {"experiment": "blockers of bursicon-stimulated LGR2 cAMP reporter – cell-based, HEK293, CRE-luciferase reporter, cherry pick, set 2, dose response (AID 743343);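 further: transfected cells were stimulated with diluted bursicon conditioned medium after compound addition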", "assay_type": "functional"}, "[31]": {"experiment": "cytotoxicity in MITF-independent A375 cells – cell-based, CellTiter-Glo luminescence, dry powder, set 4, counter-screen for MITF inhibitor project, dose response (AID 624364);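 further: A375 melanoma cells are MITF independent so this is a counter screen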", "assay_type": "functional", "conditions": "A-375"}, "[32]": {"experiment": "viability loss in MITF-independent A375 cells – cell-based, CellTiter-Glo luminescence, dry powder, set 2, counter-screen for MITF inhibitor project, dose response (AID 624489);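 further: actives are compounds lowering A375 viability meaning general cytotoxicity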", "assay_type": "functional", "conditions": "A-375"}}, "note": "The source made the active and inactive calls."}
{"smiles": "O=S(=O)(c1ccc2c(c1)C(=NO)c1cc(S(=O)(=O)N3CCCCC3)ccc1-2)N1CCCCC1", "values": [{"measurement": "AC50", "setting": "[1]", "value": "1.5 µM (active)"}, {"measurement": "EC50", "setting": "BJ [2]", "value": "2.65 µM (inconclusive)"}, {"measurement": "AC50", "setting": "HEK293", "value": "2.99 µM (active)"}, {"measurement": "EC50", "setting": "[3]", "value": "0.749 µM (active)"}, {"measurement": "EC50", "setting": "BJ [4]", "value": "1.02 µM (inconclusive)"}, {"measurement": "AC50", "setting": "Paired box protein Pax-8", "value": "0.871 µM (active)"}, {"measurement": "AC50", "setting": "[5]", "value": "0.794 µM (active)"}, {"measurement": "EC50", "setting": "BJ [6]", "value": "2.97 µM (active)"}, {"measurement": "AC50", "setting": "[7]", "value": "0.287 µM (active)"}, {"measurement": "EC50", "setting": "[8]", "value": "7.79 µM (active)"}, {"measurement": "EC50", "setting": "[9]", "value": "0.412 µM (active)"}, {"measurement": "EC50", "setting": "[10]", "value": "0.39 µM (active)"}, {"measurement": "AC50", "setting": "[11]", "value": "0.879 µM (active)"}, {"measurement": "EC50", "setting": "[12]", "value": "12.3 µM (active)"}, {"measurement": "EC50", "setting": "[13]", "value": "2.68 µM (inconclusive)"}, {"measurement": "EC50", "setting": "[14]", "value": "3.8 µM (active)"}, {"measurement": "EC50", "setting": "BJ [15]", "value": "2.71 µM (inconclusive)"}, {"measurement": "EC50", "setting": "[16]", "value": "6.01 µM (active)"}, {"measurement": "AC50", "setting": "[17]", "value": "0.73 µM (active)"}, {"measurement": "EC50", "setting": "[18]", "value": "0.352 µM (active)"}, {"measurement": "EC50", "setting": "[19]", "value": "0.3 µM (active)"}, {"measurement": "AC50", "setting": "[20]", "value": "0.767 µM (active)"}]}
{"smiles": "COc1ccc(C#Cc2ccc(C(=O)N3CCCC(OC)C3)cc2)cc1", "note": "(configuration not stated)", "values": [{"measurement": "IC50", "setting": "[21]", "value": "7.15 µM (active)"}]}
{"smiles": "Cc1ccc(OCCn2c(CCNC(=O)C3CCCCCC3)nc3ccccc32)cc1", "values": [{"measurement": "IC50", "setting": "[22]", "value": "> 123 µM (inactive)"}, {"measurement": "IC50", "setting": "[23]", "value": "> 123 µM (inactive)"}]}
{"smiles": "CS(=O)(=O)N1CC(=O)N2[C@H](CO)[C@H](c3ccc(C#CCC4CCCC4)cc3)[C@H]2C1", "values": [{"measurement": "AC50", "setting": "Paired box protein Pax-8", "value": "5.98 µM (active)"}, {"measurement": "AC50", "setting": "[24]", "value": "33.1 µM (active)"}, {"measurement": "AC50", "setting": "[25]", "value": "23 µM (active)"}]}
{"smiles": "CCCCOc1ccc(-c2cnc3ccccc3n2)cc1", "values": [{"measurement": "AC50", "setting": "[26]", "value": "> 52 µM (inactive)"}, {"measurement": "AC50", "setting": "[27]", "value": "> 52 µM (inactive)"}, {"measurement": "AC50", "setting": "[28]", "value": "> 52 µM (inactive)"}, {"measurement": "AC50", "setting": "[29]", "value": "6.65 µM (active)"}, {"measurement": "AC50", "setting": "[30]", "value": "4.56 µM (active)"}]}
{"smiles": "COc1ccc(C2=C(NC(=O)c3ccc(Cl)cc3)C(=O)c3ccccc3C2=O)cc1", "values": [{"measurement": "AC50", "setting": "[31]", "value": "35.3 µM (active)"}, {"measurement": "AC50", "setting": "[32]", "value": "18.2 µM (active)"}]}
{"smiles": "COc1cccc(Nc2nc(C(N)Cc3ccc(F)cc3)cs2)n1", "note": "(configuration not stated)", "values": [{"measurement": "AC50", "setting": "[26]", "value": "13.9 µM (active)"}, {"measurement": "AC50", "setting": "[27]", "value": "16.8 µM (active)"}, {"measurement": "AC50", "setting": "[28]", "value": "14.5 µM (active)"}, {"measurement": "AC50", "setting": "[29]", "value": "31.1 µM (active)"}, {"measurement": "AC50", "setting": "[30]", "value": "28.5 µM (active)"}]}
{"smiles": "O=C1C(Nc2ccccc2)=C(NS(=O)(=O)c2ccccc2[N+](=O)[O-])C(=O)c2ccccc21", "values": [{"measurement": "AC50", "setting": "[31]", "value": "> 70 µM (inactive)"}, {"measurement": "AC50", "setting": "[32]", "value": "> 70 µM (inactive)"}]}
